Molecular target: T1, CadD (Leptospira interrogans, UniProt Q72V44)
T1 sequence (Q72V44 1-442): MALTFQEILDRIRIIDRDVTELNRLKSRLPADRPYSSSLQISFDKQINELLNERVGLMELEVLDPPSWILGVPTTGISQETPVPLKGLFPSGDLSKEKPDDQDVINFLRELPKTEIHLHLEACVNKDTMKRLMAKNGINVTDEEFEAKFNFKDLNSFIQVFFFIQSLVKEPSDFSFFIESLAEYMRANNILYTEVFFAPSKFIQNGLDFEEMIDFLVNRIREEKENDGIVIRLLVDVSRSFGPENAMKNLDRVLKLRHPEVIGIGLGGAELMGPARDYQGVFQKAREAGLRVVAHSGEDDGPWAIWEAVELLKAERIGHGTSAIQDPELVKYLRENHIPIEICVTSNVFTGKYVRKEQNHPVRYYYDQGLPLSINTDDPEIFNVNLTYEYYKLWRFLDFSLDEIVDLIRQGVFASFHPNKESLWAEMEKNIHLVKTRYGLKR
Test: UV spectrophotometric cAMP deamination at […] nm, inhibition
Type: biochemical

O=P1(O)OC[C@H]2O[C@@H](n3cnc4cncnc43)[C@H](O)[C@@H]2O1 [cPuMP]
Ki: 1300 ± 500 nM

— publication PMC3880142 (ACS chemical biology, 2013)
